In article PMC9027599, “Secondary Metabolites in Basil, Bio-Insecticide, Inhibition Effect, and In Silico Molecular Docking against Proteolytic Enzymes of the Red Palm Weevil (Rhynchophorus ferrugineus)” (Plants, 2022):
Converted amounts (≈) assume the structure as drawn.

Experiments:
R. ferrugineus adults = assay: whole plant or invertebrate; details: Rhynchophorus ferrugineus
Experimental: The R. ferrugineus adult and larvae were acquired from an insect breeding lab at King Faisal University’s Date Palm Research Center of Excellence and grown utilizing sugarcane stem long pieces. The extracts activity against larvae was determined by using topical application method with storing larvae at 4–5 °C for 5 min. Previous serial concentrations of extract (10 µL) were applied to the dorsum of each larvae using a hand-operated micro-applicator (Burkard Manufacturing Co., Ltd., Hertfordshire, UK with a 50-ll micro-syringe (MS-N50; Ito Corp., Shizuoka, Japan). Each larva was feeding on 10 cm stem pieces of long sugarcane, with 5 larvae/box with three replicates. After topical administration, larval mortality was determined after 24, 48, 72, and 96 h to determine the LD50. Adults were tested for antifeedant effect determined using ten-centimeter-long sections of sugarcane stem divided into equal longitudinal halves. Pieces of long sections of sugarcane stem with area ~32.2 cm^2 were dipped for ten seconds in the previous serial concentration of extract (10 mL) and, then, dried in room temperature air. […] Each package received a replacement pair (male and female). Each treatment was replicated ten times. After 24, 48, 72, and 96 h, feeding observations were assayed.
Finney states that the statistical analysis and probit analysis were conducted using the SPSS 25.0 program (Statistical Package for Social Sciences, Armonk, NY, USA). Chemical components were determined by PCA using SPSS 25.0 program and presented using XLSTAT 2018.1. PCA is a clustering technique that is used to determine the relationships between samples. […] We did a mortality against dosage regression and converted the resultant median dose to an LC50 value (µg/mL). The range of LC50 was calculated with a 95 percent confidence interval using least-squares. We conducted a one-way analysis of variance on the enzyme activity data (ANOVA). The Student–Newman–Keuls (SNK) test was applied with separate means, and differences at p ≤ 0.05 were considered significant.

elastase [1] = assay: Serine proteinase microplate assay, SAAPLpNA (in vitro); format: biochemical, Rhynchophorus ferrugineus; details: fourth instar larvae midgut homogenate
Experimental: The specific activities of serine proteinase were determined using a rapid quick microplate assay with substrates in reaction mixtures (150 μL) including a serine protease assay buffer, according to […] et al. and Olga et al. with modifications. The midguts were homogenized in the assay buffer (100 mM Tris-HCl, pH 8.1) and centrifuged for 30 min at 8000 rpm (Sigma 3K 30, rotors No. 12158). […] […] (100 mg/mL in DMF), BAρNA (100 mg/mL in DMSO), and […] (100 mg/mL in DMF) stock substrates were diluted in the assay buffer to 1 mg/mL, and substrate volume was 50 μL. […] The activity was quantified using an ELISA plate reader at a wavelength of 405 nm. As an empty well, an assay combination containing a denaturation enzyme was utilized instead of an active enzyme. […] To learn more about the proteases found in homogenate preparations of R. ferrugineus fourth midgut larval instars, inhibitors from many different types of mechanisms were used. […] As a control, an assay combination devoid of inhibitors was utilized. The absorbance of the enzymes was determined using an ELISA plate quick reader at various wavelengths. The percentage activity of the control enzyme for each inhibitor was evaluated for each enzyme. […] Larvae were exposed for 24 h to leaf discs treated with extract and compounds.

elastase [2] = assay: Elastase activity of midgut from larvae treated 24 h (in vivo); set-up: species or system Rhynchophorus ferrugineus; details: midgut of fourth instar larvae treated for 24 h
Experimental: The midguts were homogenized in the assay buffer (100 mM Tris-HCl, pH 8.1) and centrifuged for 30 min at 8000 rpm (Sigma 3K 30, rotors No. 12158). […] […] (100 mg/mL in DMF), BAρNA (100 mg/mL in DMSO), and […] (100 mg/mL in DMF) stock substrates were diluted in the assay buffer to 1 mg/mL, and substrate volume was 50 μL. […] The activity was quantified using an ELISA plate reader at a wavelength of 405 nm. As an empty well, an assay combination containing a denaturation enzyme was utilized instead of an active enzyme. […] To learn more about the proteases found in homogenate preparations of R. ferrugineus fourth midgut larval instars, inhibitors from many different types of mechanisms were used. […] As a control, an assay combination devoid of inhibitors was utilized. The absorbance of the enzymes was determined using an ELISA plate quick reader at various wavelengths. The percentage activity of the control enzyme for each inhibitor was evaluated for each enzyme. […] Larvae were exposed for 24 h to leaf discs treated with extract and compounds.

cysteine protease = assay: Cysteine protease activity of midgut from larvae treated 24 h (in vivo); set-up: species or system Rhynchophorus ferrugineus; details: midgut of fourth instar larvae treated for 24 h
Experimental: The activity of cysteine proteinase was determined in the fourth midgut instar larval homogenate of R. ferrugineus using the substrate Z-Phe-Arg-MNA [1]. […] The reaction was centrifuged (at 5000 rpm, 6 min), then the absorbance was determined (at 520 nm). The activity of cysteine proteinase was measured using an ELISA quick plate reader at the OD520/60 min/mg of midgut protein. […]
As a control, an assay combination devoid of inhibitors was utilized. The absorbance of the enzymes was determined using an ELISA plate quick reader at various wavelengths. The percentage activity of the control enzyme for each inhibitor was evaluated for each enzyme. Protease activity was assayed in vivo in the R. ferrugineus fourth midgut larval instars, which were treated with 1, 10, 50, 100, 500, 1000, and 5000 mg/L of extracts or compounds, measured as described above. […]

For `COc1ccc(-c2cc(=O)c3c(O)c(OC)c(OC)cc3o2)cc1` [Salvigenin, 5-Hydroxy-6,7,4′-trimethoxyflavone], the LC50 (R. ferrugineus adults) was 1190 µg/mL (≈ 3.62 mM), the “IC50 against elastase (in vitro)” value (elastase [1]) was 105.6 µg/mL and the “IC50 against elastase (in vivo)” value (elastase [2]) was 138.2 µg/mL.
`C[C@@H]1O[C@@H](OC[C@H]2O[C@@H](Oc3c(-c4ccc(O)c(O)c4)oc4cc(O)cc(O)c4c3=O)[C@H](O)[C@@H](O)[C@@H]2O)[C@H](O)[C@H](O)[C@H]1O` [Quercetin-3-O-rutinoside] was tested, and the LC50 (R. ferrugineus adults) was 1210 µg/mL (≈ 1.99 mM) and the “IC50 against cysteine protease (in vivo)” value (cysteine protease) was 746.6 µg/mL.
With `O=C(O)C[C@H](C(=O)O)[C@@H](O)C(=O)O` [Isocitric acid] the LC50 (R. ferrugineus adults) was 1830 µg/mL (≈ 9.5 mM).
Work on `O=C(/C=C/c1ccc(O)c(O)c1)O/C=C\c1ccc(O)c(O)c1` [Nepetoidin B] yielded an LC50 (R. ferrugineus adults) of 1320 µg/mL (≈ 4.19 mM).
With `O=C(/C=C/c1ccc(O)c(O)c1)O[C@H](Cc1ccc(O)c(O)c1)C(=O)O` [Rosmarinic acid] the LC50 (R. ferrugineus adults) was 1500 µg/mL (≈ 4.15 mM), the “IC50 against elastase (in vitro)” value (elastase [1]) was 96.4 µg/mL and the “IC50 against elastase (in vivo)” value (elastase [2]) was 119.7 µg/mL.
